Measured values from US6071927A, “Spiro-piperidine derivatives and their use as therapeutic agents” (Merck Sharp & Dohme Ltd., priority 1996, dated 2000).

Tested on: NK1 receptor
Assay: NK1 receptor test by the methods of WO 93/01165, pages 36 to 39
Assay type: binding, human
Settings: 3(R) compound compared with its 3(S) epimer, Example 124
Procedure: The exemplified compounds of this invention were tested by the methods set out at pages 36 to 39 of International Patent Specification No. WO 93/01165.

(3R,5R,6S)-3-[2-(2,2,-Difluoroethoxy)-5-(difluoromethoxy)phenyl]-6-phenyl-1-oxa-7-(tert-butoxycarbonyl)aza-spiro[4,5]decane [Example 214]
potency relative to epimer: more potent
